Measurements as given in article PMC9994683 (PLOS ONE, 2023).

Legend:
[1] = tested on: Staphylococcus aureus (ATCC 43300); assay: Well-diffusion assay; format: cell-based; settings: extracts 50 μg/mL, 50 μL per well, within 24 h
[2] = tested on: Salmonella enterica (ATCC 14028); assay: Well-diffusion assay; format: cell-based; settings: extracts 50 μg/mL, 50 μL per well, within 24 h
Description: (§1) The bactericidalpotential of 50μg/mL of A. indica L. and M. azedarach L. leaves extracts were evaluated using the disc and well-diffusion assays by the formation of inhibition zone. Then, the broth-microdilution approach was used to estimate the values of minimum inhibitory concentration (MIC).
(§2) The antibacterial actions of extracts were examined against Escherichia coli (ATCC 25922), Salmonella enterica (ATCC 14028), Pseudomonas aeruginosa (ATCC 10145), representing Gram-negative (GN) bacteria; Listeria monocytogenes (ATCC 35152), Staphylococcus aureus (ATCC 43300) and Enterococcus faecalis (ATCC 43845), representing Gram-positive (GP) bacteria. Each bacterial culture stock preserved in -80°C was injected into a tube containing 20 ml of Trypticase soya broth (TSB). Then, all inoculated tubes were incubated for 24 h at 37°C. Dilution of the cultures with Mueller–Hinton Broth (MHB) was performed corresponding to ten folds serial dilution upto 10^-8CFU/ml of the bacterial culture.
2.6.2.2. Well-diffusion method. Using sanitized needle tips, a 6 mm-diameter hole was drilled. Afterward when, a sterilized cotton swab was employed to smear the inoculum standard solution of the examined microbes onto the medium. The specimen was then transferred to each well in intervals of 50 μL. Two reference antibiotic drugs (vancomycin and ciprofloxacin) served as positive controls. […]

[3] = tested on: Pseudomonas aeruginosa (ATCC 10145); assay: Well-diffusion assay; format: cell-based; settings: extracts 50 μg/mL, 50 μL per well, within 24 h
[4] = tested on: Pseudomonas aeruginosa (ATCC 10145); assay: Disc-diffusion assay; format: cell-based
[5] = tested on: Listeria monocytogenes (ATCC 35152); assay: Well-diffusion assay; format: cell-based; settings: extracts 50 μg/mL, 50 μL per well, within 24 h
[6] = tested on: Escherichia coli (ATCC 25922); assay: Well-diffusion assay; format: cell-based; settings: extracts 50 μg/mL, 50 μL per well, within 24 h
[7] = tested on: Enterococcus faecalis (ATCC 43845); assay: Disc-diffusion assay; format: cell-based
[8] = tested on: Enterococcus faecalis (ATCC 43845); assay: Well-diffusion assay; format: cell-based; settings: extracts 50 μg/mL, 50 μL per well, within 24 h
[9] = tested on: Listeria monocytogenes (ATCC 35152); assay: Disc-diffusion assay; format: cell-based; settings: ATCC35152, extracts 50 μg/mL, vancomycin 30 μg/disc, ciprofloxacin 5 μg/disc, read-out: zone of inhibition (diameter), Disc, L. mono.
Description: as §1, §2
(§3) 2.6.2.1. Disc-diffusion method. The technique was conducted based upon the Clinical and Laboratory Standards Institute (CLSI) (M02-A11). The prepared bacterial inoculum suspension was briefly swabbed onto MHA medium with a sterile cotton swab. Next, sterile discs made of filter paper (6 mm) (Maidstone, UK) were saturated with 50μg/mLof the tested samples. Both Ciprofloxacin (5μg/disc) and Vancomycin (30μg/disc) were used as controls. The saturated discs were lightly pushed on the top surfaces MHA and incubated with bacteria overnight at 37°C. A produced zone of inhibition (ZOI) was measured and given in millimeters (mm).

[10] = tested on: Salmonella enterica (ATCC 14028); assay: Disc-diffusion assay; format: cell-based; settings: ATCC14028, extracts 50 μg/mL, vancomycin 30 μg/disc, ciprofloxacin 5 μg/disc, read-out: zone of inhibition (diameter), Disc, S. enterica
Description: as §1, §2, §3

[11] = tested on: Staphylococcus aureus (ATCC 43300); assay: Disc-diffusion assay; format: cell-based
[12] = tested on: Escherichia coli (ATCC 25922); assay: Disc-diffusion assay; format: cell-based
Vero E6 cells = assay: MTT cytotoxicity assay (CC50) in Vero E6 cells; format: cell-based, African green monkey; settings: reference drug control
[13] = tested on: hCoV-19/Egypt/NRC-3/2020 SARS-CoV-2 virus; assay: Anti-SARS-CoV-2 activity (IC50), crystal violet assay in Vero-E6 cells; format: cell-based; settings: SARS-CoV-2 in Vero E6 cells, reference drug control

Compound | zone of inhibition (diameter), Well, S. aureus [1] [mm] | zone of inhibition (diameter), Well, S. enterica [2] [mm] | zone of inhibition (diameter), Well, P. aeruginosa [3] [mm] | zone of inhibition at 5 µg/disc ([4]; ATCC10145, extracts 50 μg/mL, vancomycin 30 μg/disc, ciprofloxacin 5 μg/disc, read-out: zone of inhibition (diameter), Disc, P. aeruginosa) [mm] | zone of inhibition (diameter), Well, L. mono. [5] [mm] | zone of inhibition (diameter), Well, E. coli [6] [mm] | zone of inhibition at 5 µg/disc ([7]; ATCC43845, extracts 50 μg/mL, vancomycin 30 μg/disc, ciprofloxacin 5 μg/disc, read-out: zone of inhibition (diameter), Disc, E. faecalis) [mm] | zone of inhibition (diameter), Well, E. faecalis [8] [mm] | zone of inhibition at 5 µg/disc [9] [mm] | zone of inhibition at 5 µg/disc [10] [mm] | zone of inhibition at 5 µg/disc ([11]; ATCC43300, extracts 50 μg/mL, vancomycin 30 μg/disc, ciprofloxacin 5 μg/disc, read-out: zone of inhibition (diameter), Disc, S. aureus) [mm] | zone of inhibition at 5 µg/disc ([12]; ATCC25922, extracts 50 μg/mL, vancomycin 30 μg/disc, ciprofloxacin 5 μg/disc, read-out: zone of inhibition (diameter), Disc, E. coli) [mm] | zone of inhibition at 30 µg/disc ([4]; ATCC10145, read-out: zone of inhibition (diameter), Disc, P. aeruginosa) [mm] | zone of inhibition at 30 µg/disc ([7]; ATCC43845, read-out: zone of inhibition (diameter), Disc, E. faecalis) [mm] | zone of inhibition at 30 µg/disc [9] [mm] | zone of inhibition at 30 µg/disc [10] [mm] | zone of inhibition at 30 µg/disc ([11]; ATCC43300, read-out: zone of inhibition (diameter), Disc, S. aureus) [mm] | zone of inhibition at 30 µg/disc ([12]; ATCC25922, read-out: zone of inhibition (diameter), Disc, E. coli) [mm] | CC50 (Vero E6 cells) [µM] | IC50 [13] [µM]
O=C(O)c1cn(C2CC2)c2cc(N3CCNCC3)c(F)cc2c1=O [Cipro., ciprofloxacin] | 10 ±0.29 | 12 ±0.31 | 11 ±0.31 | 9 ± 0.15 | 8 ±0.18 | 16 ±0.19 | 9 ± 0.19 | 10 ±0.15 | 6 ± 0.25 | 11 ± 0.15 | 8 ± 0.24 | 14 ± 0.28 | – | – | – | – | – | – | – | –
CN[C@H](CC(C)C)C(=O)N[C@H]1C(=O)N[C@@H](CC(N)=O)C(=O)N[C@H]2C(=O)N[C@H]3C(=O)N[C@H](C(=O)N[C@H](C(=O)O)c4cc(O)cc(O)c4-c4cc3ccc4O)[C@H](O)c3ccc(c(Cl)c3)Oc3cc2cc(c3O[C@@H]2O[C@H](CO)[C@@H](O)[C@H](O)[C@H]2O[C@H]2C[C@](C)(N)[C@H](O)[C@H](C)O2)Oc2ccc(cc2Cl)[C@H]1O [Vanco., vancomycin] | 14 ±0.27 | 9 ±0.24 | 8 ±0.24 | – | 11 ±0.11 | 10 ±0.23 | – | 13 ±0.23 | – | – | – | – | 6 ± 0.21 | 11 ± 0.31 | 9 ± 0.43 | 7 ± 0.21 | 12 ± 0.22 | 9 ± 0.11 | – | –
CCC(CC)COC(=O)[C@H](C)N[P@](=O)(OC[C@H]1O[C@@](C#N)(c2ccc3c(N)ncnn23)[C@H](O)[C@@H]1O)Oc1ccccc1 [remedesivir] | – | – | – | – | – | – | – | – | – | – | – | – | – | – | – | – | – | – | 473 | 6.72
